Assays:
Type in all cases: in vivo
[1] = tested on: sedge, umbrella (small-flower umbrella sedge, Cyperus difformis); test: Test B flooded paddy test sedge, umbrella; conditions: Table B, Flood, scale 0 to 100
Experimental: (§1) Plant species in the flooded paddy test selected from rice (Oryza sativa), sedge, umbrella (small-flower umbrella sedge, Cyperus difformis), ducksalad (Heteranthera limosa), and barnyardgrass (Echinochloa crus-galli) were grown to the 2-leaf stage for testing. At the time of treatment, test pots were flooded to 3 cm above the soil surface, treated by application of test compounds directly to the paddy water, and then maintained at that water depth for the duration of the test. Treated plants and controls were maintained in a greenhouse for 13 to 15 d, after which time all species were compared to controls and visually evaluated. […] A dash (-) response means no test result.

kochia (Kochia scoparia) [2] = test: Test A preemergence kochia; conditions: 0 to 100 scale, 0 no effect, 100 complete control
Text: (§2) Seeds of plant species selected from barnyardgrass (Echinochloa crus-galli), kochia (Kochia scoparia), ragweed (common ragweed, Ambrosia elatior), ryegrass, Italian (Italian ryegrass, Lolium multiflorum), crabgrass, large (large crabgrass, Digitaria sanguinalis), foxtail, giant (giant foxtail, Setaria faberii), morningglory (Ipomoea spp.), pigweed (Amaranthus retroflexus), velvetleaf (Abutilon theophrasti), wheat (Triticum aestivum), and corn (Zea mays) were planted into a blend of loam soil and sand and treated preemergence with a directed soil spray using test chemicals formulated in a non-phytotoxic solvent mixture which included a surfactant.
(§3) At the same time, plants selected from these crop and weed species and also blackgrass (Alopecurus myosuroides), and galium (catchweed bedstraw, Galium aparine) were planted in pots containing the same blend of loam soil and sand and treated with postemergence applications of test chemicals formulated in the same manner. Plants ranged in height from 2 to 10 cm and were in the one- to two-leaf stage for the postemergence treatment. Treated plants and untreated controls were maintained in a greenhouse for approximately 10 d, after which time all treated plants were compared to untreated controls and visually evaluated for injury. Plant response ratings, summarized in Table A, are based on a 0 to 100 scale where 0 is no effect and 100 is complete control. A dash (-) response means no test result.

[3] = tested on: ducksalad (Heteranthera limosa); test: Test B flooded paddy test ducksalad; conditions: Table B, Flood, scale 0 to 100
Experimental: as §1

[4] = tested on: ragweed (common ragweed, Ambrosia elatior); test: Test A preemergence ragweed; conditions: 0 to 100 scale, 0 no effect, 100 complete control
Text: as §2, §3

kochia (Kochia scoparia) [5] = test: Test A postemergence kochia; conditions: 0 to 100 scale, 0 is no effect, 100 is complete control
Text: as §2, §3

corn (Zea mays) = test: Test A postemergence corn; conditions: 0 to 100 scale, 0 is no effect, 100 is complete control
Text: as §2, §3

[6] = tested on: ryegrass, Italian (Italian ryegrass, Lolium multiflorum); test: Test A preemergence ryegrass, Italian; conditions: 0 to 100 scale, 0 no effect, 100 complete control
Text: as §2, §3

[7] = tested on: ragweed (common ragweed, Ambrosia elatior); test: Test A postemergence ragweed; conditions: 0 to 100 scale, 0 is no effect, 100 is complete control
Text: as §2, §3

[8] = tested on: barnyardgrass (Echinochloa crus-galli); test: Test A postemergence barnyardgrass; conditions: 0 to 100 scale, 0 is no effect, 100 is complete control
Text: as §2, §3

[9] = tested on: blackgrass (Alopecurus myosuroides); test: Test A postemergence blackgrass; conditions: 0 to 100 scale, 0 is no effect, 100 is complete control
Text: as §2, §3

[10] = tested on: foxtail, giant (giant foxtail, Setaria faberii); test: Test A preemergence foxtail, giant; conditions: 0 to 100 scale, 0 no effect, 100 complete control
Text: as §2, §3

[11] = tested on: pigweed (Amaranthus retroflexus); test: Test A preemergence pigweed; conditions: 0 to 100 scale, 0 no effect, 100 complete control
Text: as §2, §3

[12] = tested on: barnyardgrass (Echinochloa crus-galli); test: Test B flooded paddy test barnyardgrass; conditions: Table B, Flood, scale 0 to 100
Experimental: as §1

[13] = tested on: wheat (Triticum aestivum); test: Test A postemergence wheat; conditions: 0 to 100 scale, 0 is no effect, 100 is complete control
Text: as §2, §3

[14] = tested on: barnyardgrass (Echinochloa crus-galli); test: Test A preemergence barnyardgrass; conditions: 0 to 100 scale; for Barnyardgrass plant response rating: 0 no effect, 100 complete control; for Plant response rating, Barnyardgrass: 0 is no effect, 100 is complete control
Text: as §2, §3

[15] = tested on: galium (catchweed bedstraw, Galium aparine); test: Test A postemergence galium; conditions: 0 to 100 scale, 0 is no effect, 100 is complete control
Text: as §2, §3

[16] = tested on: foxtail, giant (giant foxtail, Setaria faberii); test: Test A postemergence foxtail, giant; conditions: 0 to 100 scale, 0 is no effect, 100 is complete control
Text: as §2, §3

[17] = tested on: ryegrass, Italian (Italian ryegrass, Lolium multiflorum); test: Test A postemergence ryegrass, Italian; conditions: 0 to 100 scale, 0 is no effect, 100 is complete control
Text: as §2, §3

rice (Oryza sativa) = test: Test B flooded paddy test rice; conditions: Table B, Flood, scale 0 to 100
Experimental: as §1

[18] = tested on: pigweed (Amaranthus retroflexus); test: Test A postemergence pigweed; conditions: 0 to 100 scale, 0 is no effect, 100 is complete control
Text: as §2, §3

| Structure (SMILES) | Kochia plant response rating (kochia (Kochia scoparia) [2]; 125 g ai/ha) | Kochia plant response rating (kochia (Kochia scoparia) [2]; 500 g ai/ha) | Ragweed plant response rating ([4]; 125 g ai/ha) | Ragweed plant response rating ([4]; 500 g ai/ha) | Plant response rating, Kochia (kochia (Kochia scoparia) [5]; 125 g ai/ha) | Plant response rating, Kochia (kochia (Kochia scoparia) [5]; 500 g ai/ha) | Plant response rating, Corn (corn (Zea mays); 125 g ai/ha) | Plant response rating, Corn (corn (Zea mays); 500 g ai/ha) | Ryegrass, Italian plant response rating ([6]; 125 g ai/ha) | Ryegrass, Italian plant response rating ([6]; 500 g ai/ha) | Plant response rating, Ragweed ([7]; 125 g ai/ha) | Plant response rating, Ragweed ([7]; 500 g ai/ha) | Plant response rating, Barnyardgrass ([8]; 125 g ai/ha) | Plant response rating, Barnyardgrass ([8]; 500 g ai/ha) | Plant response rating, Blackgrass ([9]; 125 g ai/ha) | Plant response rating, Blackgrass ([9]; 500 g ai/ha) | Foxtail, Giant plant response rating ([10]; 125 g ai/ha) | Foxtail, Giant plant response rating ([10]; 500 g ai/ha) | Pigweed plant response rating ([11]; 125 g ai/ha) | Pigweed plant response rating ([11]; 500 g ai/ha) | also measured |
| --- | --- | --- | --- | --- | --- | --- | --- | --- | --- | --- | --- | --- | --- | --- | --- | --- | --- | --- | --- | --- | --- |
| O=C1NCCC(c2ccccc2C(F)(F)F)C1C(=O)Nc1ccccc1C(F)(F)F (racemic) [Compound 7] | 0 | 0 | 0 | 0 | 0 | 0 | 0 | 0 | 0 | 0 | 0 | 0 | 0 | 0 | 0 | 0 | 0 | 0 | 0 | 0 | Plant response rating ([1]; 1000 g ai/ha): 0; Plant response rating ([3]; 1000 g ai/ha): 0; Plant response rating ([12]; 1000 g ai/ha): 0; Plant response rating, Wheat ([13]; 125 g ai/ha): 0; Plant response rating, Wheat ([13]; 500 g ai/ha): 0; Barnyardgrass plant response rating ([14]; 125 g ai/ha): 0; Plant response rating, Barnyardgrass ([14]; 500 g ai/ha): 0; Plant response rating, Galium ([15]; 125 g ai/ha): 0; Plant response rating, Galium ([15]; 500 g ai/ha): 0; Plant response rating, Foxtail, Giant ([16]; 125 g ai/ha): 0; Plant response rating, Foxtail, Giant ([16]; 500 g ai/ha): 0; Plant response rating, Ryegrass, Italian ([17]; 125 g ai/ha): 0; Plant response rating, Ryegrass, Italian ([17]; 500 g ai/ha): 0; Plant response rating (rice (Oryza sativa); 1000 g ai/ha): 0; Plant response rating, Pigweed ([18]; 125 g ai/ha): 0; Plant response rating, Pigweed ([18]; 500 g ai/ha): 0 |
| O=C1NCCC(c2ccccc2C(F)(F)F)C1C(=O)Nc1cccc(F)c1F (racemic) [Compound 8] | 0 | 0 | 0 | 0 | 0 | 0 | 0 | 0 | 0 | 0 | 0 | 0 | 0 | 0 | 0 | 0 | 0 | 0 | 0 | 0 | Plant response rating, Wheat ([13]; 125 g ai/ha): 0; Plant response rating, Wheat ([13]; 500 g ai/ha): 0; Barnyardgrass plant response rating ([14]; 125 g ai/ha): 0; Plant response rating, Barnyardgrass ([14]; 500 g ai/ha): 0; Plant response rating, Galium ([15]; 125 g ai/ha): 0; Plant response rating, Galium ([15]; 500 g ai/ha): 0; Plant response rating, Foxtail, Giant ([16]; 125 g ai/ha): 0; Plant response rating, Foxtail, Giant ([16]; 500 g ai/ha): 0; Plant response rating, Ryegrass, Italian ([17]; 125 g ai/ha): 0; Plant response rating, Ryegrass, Italian ([17]; 500 g ai/ha): 0; Plant response rating, Pigweed ([18]; 125 g ai/ha): 0; Plant response rating, Pigweed ([18]; 500 g ai/ha): 0 |
| O=C1NCCC(c2ccc(C(F)(F)F)cc2)C1C(=O)Nc1cccc(F)c1Cl (racemic) [Compound 15] | 0 | 0 | 0 | 80 | 10 | 60 | 0 | 0 | 0 | 0 | 0 | 40 | 60 | 70 | 20 | 50 | 80 | 90 | 0 | 0 | Plant response rating ([1]; 500 g ai/ha): 0; Plant response rating ([3]; 500 g ai/ha): 60; Plant response rating ([12]; 500 g ai/ha): 40; Plant response rating, Wheat ([13]; 125 g ai/ha): 0; Plant response rating, Wheat ([13]; 500 g ai/ha): 0; Barnyardgrass plant response rating ([14]; 125 g ai/ha): 60; Barnyardgrass plant response rating ([14]; 500 g ai/ha): 80; Plant response rating, Galium ([15]; 125 g ai/ha): 30; Plant response rating, Galium ([15]; 500 g ai/ha): 70; Plant response rating, Foxtail, Giant ([16]; 125 g ai/ha): 70; Plant response rating, Foxtail, Giant ([16]; 500 g ai/ha): 80; Plant response rating, Ryegrass, Italian ([17]; 125 g ai/ha): 0; Plant response rating, Ryegrass, Italian ([17]; 500 g ai/ha): 0; Plant response rating (rice (Oryza sativa); 500 g ai/ha): 0; Plant response rating, Pigweed ([18]; 125 g ai/ha): 0; Plant response rating, Pigweed ([18]; 500 g ai/ha): 0 |
| Cc1c(F)cccc1NC(=O)C1C(=O)NCCC1c1cccc(C(F)(F)F)c1 (racemic) [Compound 26] | 0 | 0 | 0 | 0 | 0 | 0 | 20 | 40 | 0 | 50 | 0 | 0 | 30 | 80 | 0 | 40 | 60 | 90 | 0 | 0 | Plant response rating ([1]; 500 g ai/ha): 0; Plant response rating ([3]; 500 g ai/ha): 50; Plant response rating ([12]; 500 g ai/ha): 40; Plant response rating, Wheat ([13]; 125 g ai/ha): 0; Plant response rating, Wheat ([13]; 500 g ai/ha): 20; Barnyardgrass plant response rating ([14]; 125 g ai/ha): 30; Barnyardgrass plant response rating ([14]; 500 g ai/ha): 90; Plant response rating, Galium ([15]; 125 g ai/ha): 0; Plant response rating, Galium ([15]; 500 g ai/ha): 0; Plant response rating, Foxtail, Giant ([16]; 125 g ai/ha): 30; Plant response rating, Foxtail, Giant ([16]; 500 g ai/ha): 90; Plant response rating, Ryegrass, Italian ([17]; 125 g ai/ha): 20; Plant response rating, Ryegrass, Italian ([17]; 500 g ai/ha): 20; Plant response rating (rice (Oryza sativa); 500 g ai/ha): 0; Plant response rating, Pigweed ([18]; 125 g ai/ha): 0; Plant response rating, Pigweed ([18]; 500 g ai/ha): 0 |
| O=C1NCCC(c2cccc(C(F)(F)F)c2)C1C(=O)Nc1ccc(F)cc1F (racemic) [Compound 27] | 0 | 0 | 0 | 0 | 0 | 0 | 0 | 0 | 0 | 0 | 0 | 0 | 50 | 60 | 0 | 0 | 80 | 90 | 0 | 0 | Plant response rating ([1]; 500 g ai/ha): 0; Plant response rating ([3]; 500 g ai/ha): 0; Plant response rating ([12]; 500 g ai/ha): 0; Plant response rating, Wheat ([13]; 125 g ai/ha): 0; Plant response rating, Wheat ([13]; 500 g ai/ha): 0; Barnyardgrass plant response rating ([14]; 125 g ai/ha): 60; Barnyardgrass plant response rating ([14]; 500 g ai/ha): 90; Plant response rating, Galium ([15]; 125 g ai/ha): 0; Plant response rating, Galium ([15]; 500 g ai/ha): 0; Plant response rating, Foxtail, Giant ([16]; 125 g ai/ha): 40; Plant response rating, Foxtail, Giant ([16]; 500 g ai/ha): 70; Plant response rating, Ryegrass, Italian ([17]; 125 g ai/ha): 0; Plant response rating, Ryegrass, Italian ([17]; 500 g ai/ha): 0; Plant response rating (rice (Oryza sativa); 500 g ai/ha): 0; Plant response rating, Pigweed ([18]; 125 g ai/ha): 0; Plant response rating, Pigweed ([18]; 500 g ai/ha): 0 |
